Results reported in BindingDB's records for doi:10.1021/jm00126a022 (University of South Alabama, 1989).

Molecular target: GAR formyltransferase (Lactobacillus casei)
Test: Inhibition of the GAR formyl transferase in lactobacillus casei

IC50: > 20 µM
SMILES: CC(Cc1ccc(C(=O)NC(CCC(=O)O)C(=O)O)cc1)Cc1cnc2nc(N)[nH]c(=O)c2n1 (stereo unspecified)
